In ChEMBL document CHEMBL1136411, “Imidazo[4,5-b]pyridines as corticotropin releasing factor receptor ligands” (Bioorg Med Chem Lett, 2003):

What was measured:
[1] = target: T1, Corticotropin releasing factor receptor (Rattus norvegicus, UniProt P47866+P35353); assay: In vitro binding affinity to the CRF receptor in rat cortical homogenates
[2] = Half life was determined; type: ADME, organism-based, Canis lupus familiaris; conditions: dog, in vivo
Canis familiaris = assay: Area under the curve at a dose of 1 mg/kg; type: ADME, organism-based, Canis lupus familiaris; set-up: dose 1 mg/kg; conditions: dog, in vivo
[3] = target: T1, Corticotropin releasing factor receptor; assay: In vitro binding affinity against Corticotropin releasing factor receptor in rat cortical homogenates
Rattus norvegicus = assay: Anxiolytic efficacy in rat after peroral administration; type: functional; conditions: po
[4] = Maximal plasma concentration at a dose of 1 mg/kg; type: ADME, organism-based, Canis lupus familiaris; set-up: dose 1 mg/kg; conditions: dog

Row | Ki [1] | SMILES | other results
1 | 1.9 nM | CCC(CCOC)n1c(OC)nc2c(-c3ccc(OC(F)(F)F)cc3Cl)ccnc21 (stereo unspecified) | –
2 | 2.4 nM | CCc1nc2c(-c3ccc(Cl)cc3Cl)ccnc2n1C(CCOC)C1CCC1 (stereo unspecified) | –
3 | 3.5 nM | CCCC(C)n1c(CC)nc2c(-c3ccc(C(C)OC)cc3Cl)ccnc21 (stereo unspecified) | –
4 | 1.4 nM | CCCC(C)n1c(CC)nc2c(-c3ccc(SC)cc3C(F)(F)F)ccnc21 (stereo unspecified) | –
5 | 0.4 nM | CCc1nc2c(-c3ccc(Cl)cc3Cl)ccnc2n1[C@@H](CC)C1CC1 | –
6 | 6.8 nM | CCCC(C)n1c(CC)nc2c(-c3ccc(S(C)(=O)=O)cc3C(F)(F)F)ccnc21 (stereo unspecified) | –
7 | 2.3 nM | CCCC(C)n1c(CC)nc2c(-c3ccc(/C(C)=N\OC)cc3Cl)ccnc21 (stereo unspecified) | –
8 | 1.8 nM | CCc1nc2c(-c3ccc(C(F)(F)F)cc3Cl)ncnc2n1C(C1CC1)C1CC1 | –
9 | 1.3 nM | CCc1nc2c(-c3ccc(Cl)cc3Cl)ccnc2n1C(C)CC (stereo unspecified) | –
10 | 82.7 nM | CCC(CCOC)n1c(COC)nc2c(-c3ccc(C(F)(F)F)cc3Cl)ccnc21 (stereo unspecified) | –
11 | 0.2 nM | CCc1nc2c(-c3ccc(Cl)cc3Cl)ccnc2n1[C@H](CC)C1CC1 | –
12 | 1 nM | CCc1nc2c(-c3ccc(Cl)cc3Cl)ccnc2n1C(C)C1CCC1 (stereo unspecified) | –
13 | 1.1 nM | CCCC(C)n1c(CC)nc2c(-c3ccc(C(F)(F)F)cc3Cl)ccnc21 (stereo unspecified) | half-life [2]: 4.9 h; AUC (Canis familiaris): 0.604 µM·h; Ki [3]: 1.1 nM; ED50 (Rattus norvegicus): 3 mg/kg; Cmax [4]: 159 nM
14 | 4.7 nM | CCc1nc2c(-c3ccc(C(F)(F)F)cc3Cl)ccnc2n1C(CC)COC (stereo unspecified) | –
15 | 95.6 nM | CCCC(C)n1c(CC)nc2c(-c3ccc(Cl)cc3C(C)=O)ccnc21 (stereo unspecified) | –
16 | 1 nM | CCc1nc2c(-c3ccc(Cl)cc3Cl)ccnc2n1C(CC)CC | –
17 | 15.8 nM | CCCC(C)n1c(C(F)F)nc2c(-c3ccc(Cl)cc3Cl)ccnc21 (stereo unspecified) | –
18 | 0.6 nM | CCCC(C)n1c(CC)nc2c(-c3cc(C)c(OC)cc3C)ccnc21 (stereo unspecified) | –
19 | 1.5 nM | CCc1nc2c(-c3ccc(Cl)cc3Cl)ccnc2n1C(CCOC)C1CC1 (stereo unspecified) | –
20 | 5.1 nM | CCCC(C)n1c(CC)nc2c(-c3ccc(C(C)O)cc3Cl)ccnc21 (stereo unspecified) | –
21 | 2.4 nM | CCCC(C)n1c(CC)nc2c(-c3cc(F)c(F)cc3Cl)ccnc21 (stereo unspecified) | –
22 | 0.74 nM | CCCC(C)n1c(CC)nc2c(-c3ccc(OC)cc3C(F)(F)F)ccnc21 (stereo unspecified) | half-life [2]: 5.9 h; AUC (Canis familiaris): 0.182 µM·h; Ki [3]: 0.7 nM; ED50 (Rattus norvegicus): 3 mg/kg; Cmax [4]: 62 nM
23 | – | CCc1nc2c(-c3ccc(OC(F)F)cc3Cl)ccnc2n1C(C)C1CCC1 (stereo unspecified) | half-life [2]: 10 h; AUC (Canis familiaris): 0.795 µM·h; Ki [3]: 0.7 nM; ED50 (Rattus norvegicus): < 3 mg/kg; Cmax [4]: 185 nM
24 | 1 nM | CCCC(C)n1c(CC)nc2c(-c3ccc(C(C)=O)cc3Cl)ccnc21 (stereo unspecified) | –
25 | 20.8 nM | CCC(CCOC)n1c(C2CC2)nc2c(-c3ccc(C(F)(F)F)cc3Cl)ccnc21 (stereo unspecified) | –
26 | 0.8 nM | CCCC(C)n1c(CC)nc2c(-c3ccc(OC)cc3C)ccnc21 (stereo unspecified) | –
27 | 0.6 nM | CCc1nc2c(-c3ccc(Cl)cc3Cl)ccnc2n1[C@H](C)C1CC1 | –
